From US5128244A, “Assay for dioxins” (Wisconsin Alumni Research Foundation, priority 1989, dated 1992) come the findings set out here.

Series [1] deals with T1, Ah receptor (Mus musculus, UniProt P30561).
T1 construct: full-length receptor (C57BL/6J carries Ahr b-1 allele)
T1 sequence (P30561 10-848): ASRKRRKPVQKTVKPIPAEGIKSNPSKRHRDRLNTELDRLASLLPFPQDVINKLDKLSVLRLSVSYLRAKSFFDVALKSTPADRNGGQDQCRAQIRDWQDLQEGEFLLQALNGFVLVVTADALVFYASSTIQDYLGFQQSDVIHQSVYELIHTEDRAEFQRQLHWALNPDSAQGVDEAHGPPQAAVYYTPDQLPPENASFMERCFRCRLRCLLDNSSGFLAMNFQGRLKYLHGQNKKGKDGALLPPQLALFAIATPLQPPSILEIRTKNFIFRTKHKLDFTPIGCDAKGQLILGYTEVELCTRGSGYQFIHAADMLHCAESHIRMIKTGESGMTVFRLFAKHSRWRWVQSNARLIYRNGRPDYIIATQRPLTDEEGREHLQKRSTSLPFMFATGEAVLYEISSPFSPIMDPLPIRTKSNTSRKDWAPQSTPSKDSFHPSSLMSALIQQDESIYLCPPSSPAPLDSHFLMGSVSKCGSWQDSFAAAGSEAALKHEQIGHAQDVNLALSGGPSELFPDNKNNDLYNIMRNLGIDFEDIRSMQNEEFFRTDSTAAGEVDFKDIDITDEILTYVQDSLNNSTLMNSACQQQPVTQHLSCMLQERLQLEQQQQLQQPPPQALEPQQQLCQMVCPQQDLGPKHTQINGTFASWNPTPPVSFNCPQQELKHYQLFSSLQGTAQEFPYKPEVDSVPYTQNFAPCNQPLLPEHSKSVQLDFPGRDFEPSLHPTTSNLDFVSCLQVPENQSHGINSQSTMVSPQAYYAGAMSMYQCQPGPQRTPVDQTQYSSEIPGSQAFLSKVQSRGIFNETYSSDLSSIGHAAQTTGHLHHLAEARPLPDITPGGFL
The series is described as follows: Competitive binding assay of TCDD against [125I] radioligand for Ah receptor. Set-up: species or system C57BL/6J mice. Here is the method:
C57BL/6J mice were purchased from The Jackson Laboratory, Bar Harbor, Me., and bred in our laboratory. See generally A. Poland et al., 261 J. Biol. Chem. 6352-65 (May 15, 1986) (not prior art). One-hundred adult male and female mice were killed by cervical dislocation, their livers removed, rinsed with ice cold KCl (150 mM), homogenized in 9 vol of MSSENG buffer, and centrifuged at 10,000 xg for 20 min at 4° C. The post-mitochondrial supernatant was carefully removed to avoid contamination by the surface lipid layer, and subjected to centrifugation at 105,000 x g. The supernatant (approx. 10 mg protein/ml) was separated from surface lipids and the microsomal pellet, and stored at -80° C. until processed further.
The frozen cytosolic fraction was thawed, and placed in an ice bath with slow stirring. A saturated solution of ammonium sulfate in MEN buffer was added to the cytosolic preparation, to a final concentration of 40%, over a period of 30 min, and stirred for an additional 30 min. The solution was centrifuged at 10,000 x g for 20 min, the supernatant fraction removed, slowly brought to an ammonium sulfate concentration of 55%, stirred for an additional 30 min, centrifuged at 10,000xg, and the supernatant discarded. The 40-55% ammonium sulfate precipitate was resuspended in 55% ammonium sulfate in MN, and aliquots equivalent to 0.5 g wet weight of liver (15 mg protein) were placed in 12×75 mm borosilicate tubes (VWR Scientific, San Francisco, Calif.), and spun at 5000xg. […]
The assay was terminated by the addition of a 0.5 ml of suspension of charcoal/gelatin (3%/0.3%) in MN buffer with vigorous stirring on a vortex mixer for 3 sec., and incubated for 10 min at 4° C. […] A one ml aliquot of the supernatant fraction of each tube was transferred to 12×75 […] polypropylene tubes (VWR Scientific, San Francisco, CA), and the Ah bound radioligand quantified in a MINAXI Series-5000 gamma scintillation counter (United Technologies/Packard Instrument Co., Downer Grove, Ill.). […]

Series [2] deals with T1, Ah receptor. The series is described as follows: Radioligand stock solution aged 120 days, tested in the Ah receptor binding assay. More on the design: species or system C57BL/6J mice. Particulars: stock solution of radioligand 120 days after its synthesis. The source says: [^125 I]decays to tellurium with a half-life of 60 days. Thus, radiodecay could produce unlabelled 2,3-dibromodibenzo-p-dioxin in the radioligand stock solution. We tested whether radioligand decay products might compete for receptor binding and diminish radioligand binding.

On to `Clc1cc2c(cc1Cl)Oc1cc(Cl)c(Cl)cc1O2` [TCDD, 2,3,7,8-tetrachloro-dibenzo-p-dioxin], for which the results for the “minimal detectable amount of TCDD” value in series [1] (1 ml assay) and in series [1] (total assay volume reduced to 0.25 ml) were 3.2 pg and 0.8 pg, respectively. Also, the “minimal detectable concentration of TCDD” value in series [1] (1 ml assay, statistical analysis of standard curve of specifically bound radioligand v. log concentration of competing TCDD) is 10 pM.

For the compound `Brc1cc2c(cc1Br)Oc1cc([125I])ccc1O2` [radioligand, [^125 I]-2-iodo-7,8-dibromo-dibenzo-p-dioxin], the “deviation in the quality control parameters compared to freshly prepared radioligand” value in series [2] is listed as “no significant deviation”.
